Key:
Salmonella enterica = test: Antibacterial activity against Salmonella enterica MTCC 3224 incubated overnight by broth dilution technique; format: functional, organism-based
Escherichia coli [1] = test: Antibacterial activity against Escherichia coli ATCC 25922 incubated overnight by broth dilution technique; format: functional, organism-based
Streptococcus pneumoniae = test: Antibacterial activity against Streptococcus pneumoniae MTCC 655 incubated overnight by broth dilution technique; format: functional, organism-based
Klebsiella pneumoniae [2] = test: Antibacterial activity against Klebsiella pneumoniae ATCC 700603 incubated overnight by broth dilution technique; format: functional, organism-based
Pseudomonas aeruginosa [3] = test: Antibacterial activity against Pseudomonas aeruginosa MTCC 2453 incubated overnight by broth dilution technique; format: functional, organism-based
Enterococcus faecalis [4] = test: Antibacterial activity against Enterococcus faecalis MTCC 439 incubated overnight by broth dilution technique; format: functional, organism-based
Escherichia coli [5] = test: Antibacterial activity against Escherichia coli ATCC 25922 incubated for 24 hrs by broth dilution method; format: functional
Staphylococcus aureus [6] = test: Antibacterial activity against Staphylococcus aureus ATCC 9144 incubated for 24 hrs by broth dilution method; format: functional
Bacillus spizizenii = test: Antibacterial activity against Bacillus subtilis ATCC 6633 incubated for 24 hrs by broth dilution method; format: functional
Proteus vulgaris = test: Antibacterial activity against Proteus vulgaris ATCC […] incubated for 24 hrs by broth dilution method; format: functional
[7] = test system: Sphingomonas paucimobilis; test: Antibacterial activity against Flavobacterium devorans ATCC 10829 incubated for 24 hrs; format: functional
Bacillus cereus = test: Antibacterial activity against Bacillus cereus ATCC 6630 incubated for 24 hrs; format: functional
Escherichia coli [8] = test: Antibacterial activity against Escherichia coli NCIM 2256 incubated for 24 hrs; format: functional
Staphylococcus aureus [9] = test: Antibacterial activity against Staphylococcus aureus ATCC 29737 incubated for 24 hrs; format: functional
Pseudomonas fluorescens = test: Antibacterial activity against Pseudomonas fluorescens NCIM 2173 incubated for 24 hrs; format: functional
Micrococcus luteus = test: Antibacterial activity against Micrococcus Luteus ATCC 398 incubated for 24 hrs; format: functional
Staphylococcus aureus [10] = test: Antibacterial activity against constitutively-resistant Staphylococcus aureus; format: functional
Staphylococcus aureus [11] = test: Antibacterial activity against methicillin-resistant Staphylococcus aureus; format: functional
Staphylococcus aureus [12] = test: Antibacterial activity against inducibly-resistant Staphylococcus aureus; format: functional
Aspergillus niger [13] = test: Antibacterial activity against Aspergillus niger ATCC 9029 incubated for 24 hrs by broth microdilution method; format: functional
Aspergillus niger [14] = test: Antibacterial activity against Aspergillus niger MTCC 8189 by serial dilution method; format: functional
Candida albicans [15] = test: Antifungal activity against Candida albicans MTCC 227 incubated for 2 days by microdilution method; format: functional; settings: MTCC 227, 48 h, time 2 day
Candida albicans [16] = test: Antifungal activity against Candida albicans ATCC 50193 incubated for 24 hrs by microdilution method; format: functional
Candida albicans [17] = test: Antifungal activity against Candida albicans ATCC 2091 incubated for 24 hrs by broth microdilution method; format: functional
Aspergillus brasiliensis [18] = test: Antifungal activity against Aspergillus brasiliensis MTCC 1344 incubated for 7 days by microdilution method; format: functional; settings: MTCC 1344, 168 h, time 7 day
Candida albicans [19] = test: Antibacterial activity against Candida albicans MTCC 227 by serial dilution method; format: functional
Aspergillus brasiliensis [20] = test: Antifungal activity against Aspergillus brasiliensis ATCC 16404 incubated for 24 hrs by microdilution method; format: functional
Escherichia coli [21] = test: Antibacterial activity against Escherichia coli ATCC 25922 after overnight incubation by CLSI M7-A9 based method; format: functional
Escherichia coli [22] = test: Antibacterial activity against Escherichia coli JM109 after overnight incubation by CLSI M7-A9 based method; format: functional
Staphylococcus aureus [23] = test: Antibacterial activity against Staphylococcus aureus CIP 6525 after overnight incubation by CLSI M7-A9 based method; format: functional
Enterococcus faecalis [24] = test: Antibacterial activity against Enterococcus faecalis ATCC 29212 after overnight incubation by CLSI M7-A9 based method; format: functional
Escherichia coli [25] = test: Antibacterial activity against Escherichia coli assessed as inhibition zone at 1 mg/ml measured after overnight incubation by disc diffusion method; format: functional; settings: read-out: IZ
Pseudomonas aeruginosa [26] = test: Antibacterial activity against Pseudomonas aeruginosa assessed as inhibition zone at 1 mg/ml measured after overnight incubation by disc diffusion method; format: functional; settings: read-out: IZ
Staphylococcus aureus [27] = test: Antibacterial activity against Staphylococcus aureus assessed as inhibition zone at 1 mg/ml measured after overnight incubation by disc diffusion method; format: functional; settings: read-out: IZ
Bacillus subtilis = test: Antibacterial activity against Bacillus subtilis assessed as inhibition zone at 1 mg/ml measured after overnight incubation by disc diffusion method; format: functional; settings: read-out: IZ
Klebsiella pneumoniae [28] = test: Antibacterial activity against Klebsiella pneumoniae MTCC 618 incubated for 24 hrs by microdilution method; format: functional

Cc1ccc(-n2cc(COc3cccc4cccnc34)nn2)cc1
113 µg/mL: IC50 (Salmonella enterica) | IC50 (Escherichia coli [1]) | IC50 (Streptococcus pneumoniae) | IC50 (Klebsiella pneumoniae [2]) | IC50 (Pseudomonas aeruginosa [3]) | IC50 (Enterococcus faecalis [4])

GENTAMICIN
1.56 µg/mL: MIC (Escherichia coli [5]) | MIC (Staphylococcus aureus [6]) | MIC (Bacillus spizizenii) | MIC (Proteus vulgaris)

c1ccc(-n2cc(COc3cccc4cccnc34)nn2)cc1
106 µg/mL: IC50 (Salmonella enterica) | IC50 (Escherichia coli [1]) | IC50 (Streptococcus pneumoniae) | IC50 (Klebsiella pneumoniae [2]) | IC50 (Pseudomonas aeruginosa [3]) | IC50 (Enterococcus faecalis [4])

O=C(N[C@H](CO)[C@H](O)c1ccc([N+](=O)[O-])cc1)C(Cl)Cl [CHLORAMPHENICOL]
1.56 µg/mL: MIC (Escherichia coli [5]) | MIC (Staphylococcus aureus [6]) | MIC (Bacillus spizizenii) | MIC (Proteus vulgaris)
2 µg/mL: MIC [7] | MIC (Bacillus cereus) | MIC (Escherichia coli [8]) | MIC (Staphylococcus aureus [9]) | MIC (Pseudomonas fluorescens) | MIC (Micrococcus luteus)

Fc1ccc(-n2cc(COc3cccc4cccnc34)nn2)cc1
106 µg/mL: IC50 (Salmonella enterica) | IC50 (Escherichia coli [1]) | IC50 (Streptococcus pneumoniae) | IC50 (Klebsiella pneumoniae [2]) | IC50 (Pseudomonas aeruginosa [3]) | IC50 (Enterococcus faecalis [4])

O=C(/C=C1\C(=O)N(Cc2cn(Cc3ccccc3)nn2)c2ccc(Br)cc21)c1cc(Cl)cc(Cl)c1OCc1cn(Cc2ccccc2)nn1
1.56 µg/mL: MIC (Escherichia coli [5]) | MIC (Staphylococcus aureus [6]) | MIC (Bacillus spizizenii) | MIC (Proteus vulgaris)

O=C(/C=C1\C(=O)N(Cc2cn(Cc3ccccc3)nn2)c2ccccc21)c1cc(Cl)cc(Cl)c1OCc1cn(Cc2ccccc2)nn1
1.56 µg/mL: MIC (Escherichia coli [5]) | MIC (Staphylococcus aureus [6]) | MIC (Bacillus spizizenii) | MIC (Proteus vulgaris)

O=[N+]([O-])c1ccc(-n2cc(COc3cccc4cccnc34)nn2)cc1
106 µg/mL: IC50 (Salmonella enterica) | IC50 (Escherichia coli [1]) | IC50 (Streptococcus pneumoniae) | IC50 (Klebsiella pneumoniae [2]) | IC50 (Pseudomonas aeruginosa [3]) | IC50 (Enterococcus faecalis [4])

NS(=O)(=O)c1ccc(-n2cc(COc3cccc4cccnc34)nn2)cc1
106 µg/mL: IC50 (Salmonella enterica) | IC50 (Escherichia coli [1]) | IC50 (Streptococcus pneumoniae) | IC50 (Klebsiella pneumoniae [2]) | IC50 (Pseudomonas aeruginosa [3]) | IC50 (Enterococcus faecalis [4])

CO[C@@H]1[C@@H](O[C@@H]2O[C@H](C)[C@@H](O[C@H]3C[C@@](C)(O)[C@@H](OC(=O)CCCc4cn(C56CC7CC(CC(C7)C5)C6)nn4)[C@H](C)O3)[C@H](N(C)C)[C@H]2O)[C@H]2CC(O[Si](C)(C)C(C)(C)C)O[C@@H]1CC(=O)O[C@H](C)CC/C=C/C=C/[C@H](O[C@H]1CC[C@H](N(C)C)[C@@H](C)O1)[C@H](C)C2 (some centres not stated)
8 µg/mL: MIC (Staphylococcus aureus [10]) | MIC (Staphylococcus aureus [11]) | MIC (Staphylococcus aureus [12])

OC(Cn1cncn1)(Cn1cncn1)c1ccc(F)cc1F [FLUCONAZOLE]
0.0716 µM: MIC (Aspergillus brasiliensis [18])
5.1 µM: MIC (Aspergillus niger [14]) | MIC (Candida albicans [19])
1 µg/mL: MIC (Candida albicans [16])
8 µg/mL: MIC (Aspergillus niger [13]) | MIC (Candida albicans [17])
0.0408 µM: MIC (Candida albicans [15])
4 µg/mL: MIC (Aspergillus brasiliensis [20])

C[C@H](c1ccccc1)N(CC(N)=O)C(=O)CN(C(=O)CN(Cc1cn(CCN)n[n+]1C)C(=O)CN(C(=O)CN(C(=O)CNCc1cn(CCN)n[n+]1C)[C@H](C)c1ccccc1)[C@H](C)c1ccccc1)[C@H](C)c1ccccc1
> 1.6 µg/mL: MIC (Escherichia coli [21]) | MIC (Escherichia coli [22]) | MIC (Staphylococcus aureus [23]) | MIC (Enterococcus faecalis [24])

CCn1cc(C(=O)O)c(=O)c2cc(F)c(N3CCNCC3)cc21 [NORFLOXACIN]
9.38 µg/mL: MIC (Klebsiella pneumoniae [28])
2.5 mm: zone of inhibition at 1000 µg/mL (Escherichia coli [25]) | zone of inhibition at 1000 µg/mL (Pseudomonas aeruginosa [26]) | zone of inhibition at 1000 µg/mL (Staphylococcus aureus [27]) | zone of inhibition at 1000 µg/mL (Bacillus subtilis)

C[C@H](c1ccccc1)N(CC(N)=O)C(=O)CN(C(=O)CN(Cc1cn(CCN)n[n+]1C)C(=O)CN(C(=O)CN(C(=O)CN(Cc1cn(CCN)n[n+]1C)C(=O)CN(C(=O)CN(C(=O)CNCc1cn(CCN)n[n+]1C)[C@H](C)c1ccccc1)[C@H](C)c1ccccc1)[C@H](C)c1ccccc1)[C@H](C)c1ccccc1)[C@H](C)c1ccccc1
> 1.6 µg/mL: MIC (Escherichia coli [21]) | MIC (Escherichia coli [22]) | MIC (Staphylococcus aureus [23]) | MIC (Enterococcus faecalis [24])

C[C@H](c1ccccc1)N(CC(N)=O)C(=O)CN(C(=O)CN(Cc1cn(CC2CCCCC2)nn1)C(=O)CN(C(=O)CN(C(=O)CNCc1cn(CC2CCCCC2)nn1)[C@H](C)c1ccccc1)[C@H](C)c1ccccc1)[C@H](C)c1ccccc1
> 1.6 µg/mL: MIC (Escherichia coli [21]) | MIC (Escherichia coli [22]) | MIC (Staphylococcus aureus [23]) | MIC (Enterococcus faecalis [24])

C[C@H](c1ccccc1)N(CC(N)=O)C(=O)CN(C(=O)CN(Cc1cn(CC2CCCCC2)n[n+]1C)C(=O)CN(C(=O)CN(C(=O)CNCc1cn(CC2CCCCC2)n[n+]1C)[C@H](C)c1ccccc1)[C@H](C)c1ccccc1)[C@H](C)c1ccccc1
> 1.6 µg/mL: MIC (Escherichia coli [21]) | MIC (Escherichia coli [22]) | MIC (Staphylococcus aureus [23]) | MIC (Enterococcus faecalis [24])

Oc1cccc2cccnc12 [OXYQUINOLINE]
15.6 µg/mL: IC50 (Salmonella enterica) | IC50 (Escherichia coli [1]) | IC50 (Streptococcus pneumoniae) | IC50 (Klebsiella pneumoniae [2]) | IC50 (Pseudomonas aeruginosa [3]) | IC50 (Enterococcus faecalis [4])

SPIRAMYCIN
> 256 µg/mL: MIC (Staphylococcus aureus [10]) | MIC (Staphylococcus aureus [11]) | MIC (Staphylococcus aureus [12])

CO[C@@H]1[C@@H](O[C@@H]2O[C@H](C)[C@@H](O[C@H]3C[C@@](C)(O)[C@@H](OC(=O)CCCc4cn(CSc5ccccc5)nn4)[C@H](C)O3)[C@H](N(C)C)[C@H]2O)[C@H]2CC(O[Si](C)(C)C(C)(C)C)O[C@@H]1CC(=O)O[C@H](C)CC/C=C/C=C/[C@H](O[C@H]1CC[C@H](N(C)C)[C@@H](C)O1)[C@H](C)C2 (some centres not stated)
8 µg/mL: MIC (Staphylococcus aureus [10]) | MIC (Staphylococcus aureus [11]) | MIC (Staphylococcus aureus [12])

Clc1ccc(-n2cc(COc3cccc4cccnc34)nn2)cc1
106 µg/mL: IC50 (Salmonella enterica) | IC50 (Escherichia coli [1]) | IC50 (Streptococcus pneumoniae) | IC50 (Klebsiella pneumoniae [2]) | IC50 (Pseudomonas aeruginosa [3]) | IC50 (Enterococcus faecalis [4])

From ChEMBL document CHEMBL4699440, “Comprehensive review on the anti-bacterial activity of 1,2,3-triazole hybrids” (Eur J Med Chem, 2019)
